Entries after “also recorded” stand apart in the source; their conditions may differ. Bridge positions count the residues as written; N and C are the ends. Peptide text beside a SMILES is read from it.
How the values were obtained:
C2C12 cells = assay: MTT assay in C2C12 cells; type: cell-based
Experimental: To examine the function of […] on cell viability and growth, an MTT assay was performed in C2C12 cells.

CAL33 = assay: Cancer cell proliferation, CAL33; type: cell-based
IR D707A [1] = target: T1, IR D707A (Homo sapiens, UniProt P06213, D734A); assay: IR activation assay in 293 FT cells, IR D707A mutant; type: cell-based; design: expressed in transfected cells; host or cells: 293 FT cells; settings: 10 min
T1 sequence (P06213 28-1370 isoform P06213-2 D734A limits assumed): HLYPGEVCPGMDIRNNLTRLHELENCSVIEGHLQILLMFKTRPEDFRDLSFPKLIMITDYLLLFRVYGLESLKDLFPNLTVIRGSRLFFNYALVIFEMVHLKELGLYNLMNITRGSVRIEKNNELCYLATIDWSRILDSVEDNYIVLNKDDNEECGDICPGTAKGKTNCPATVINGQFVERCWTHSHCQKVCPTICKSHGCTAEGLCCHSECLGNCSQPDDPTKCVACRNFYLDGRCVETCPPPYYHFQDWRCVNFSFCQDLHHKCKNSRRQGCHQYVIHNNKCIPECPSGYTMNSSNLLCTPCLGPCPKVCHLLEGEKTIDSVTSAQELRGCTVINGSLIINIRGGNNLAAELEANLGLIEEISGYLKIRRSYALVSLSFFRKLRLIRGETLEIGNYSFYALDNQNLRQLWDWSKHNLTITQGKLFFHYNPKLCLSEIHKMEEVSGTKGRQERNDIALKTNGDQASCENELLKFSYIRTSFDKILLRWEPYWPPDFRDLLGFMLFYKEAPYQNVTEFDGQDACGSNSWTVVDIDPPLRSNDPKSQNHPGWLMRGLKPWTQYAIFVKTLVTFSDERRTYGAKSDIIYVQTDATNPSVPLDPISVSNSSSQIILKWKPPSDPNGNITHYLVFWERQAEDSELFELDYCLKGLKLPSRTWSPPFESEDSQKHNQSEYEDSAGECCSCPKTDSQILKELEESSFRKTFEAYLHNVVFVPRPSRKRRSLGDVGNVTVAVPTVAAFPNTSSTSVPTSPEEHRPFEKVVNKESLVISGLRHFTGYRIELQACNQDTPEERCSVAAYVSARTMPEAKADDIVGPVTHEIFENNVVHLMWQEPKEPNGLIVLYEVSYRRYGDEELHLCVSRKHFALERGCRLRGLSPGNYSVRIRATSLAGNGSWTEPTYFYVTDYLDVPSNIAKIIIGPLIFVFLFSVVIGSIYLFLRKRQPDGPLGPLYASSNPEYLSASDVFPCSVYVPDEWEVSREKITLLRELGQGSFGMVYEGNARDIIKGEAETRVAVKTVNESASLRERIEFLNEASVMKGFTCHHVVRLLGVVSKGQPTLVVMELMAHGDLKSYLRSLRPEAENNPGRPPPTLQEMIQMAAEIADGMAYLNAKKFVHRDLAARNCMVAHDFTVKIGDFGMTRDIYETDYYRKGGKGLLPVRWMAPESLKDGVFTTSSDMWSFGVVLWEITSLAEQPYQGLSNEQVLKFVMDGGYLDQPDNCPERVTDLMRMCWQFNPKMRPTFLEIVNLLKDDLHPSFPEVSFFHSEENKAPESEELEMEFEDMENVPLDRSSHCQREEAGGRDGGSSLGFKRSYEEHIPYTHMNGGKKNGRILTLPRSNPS
T1 sequence (P06213 763-1382 partner limits assumed): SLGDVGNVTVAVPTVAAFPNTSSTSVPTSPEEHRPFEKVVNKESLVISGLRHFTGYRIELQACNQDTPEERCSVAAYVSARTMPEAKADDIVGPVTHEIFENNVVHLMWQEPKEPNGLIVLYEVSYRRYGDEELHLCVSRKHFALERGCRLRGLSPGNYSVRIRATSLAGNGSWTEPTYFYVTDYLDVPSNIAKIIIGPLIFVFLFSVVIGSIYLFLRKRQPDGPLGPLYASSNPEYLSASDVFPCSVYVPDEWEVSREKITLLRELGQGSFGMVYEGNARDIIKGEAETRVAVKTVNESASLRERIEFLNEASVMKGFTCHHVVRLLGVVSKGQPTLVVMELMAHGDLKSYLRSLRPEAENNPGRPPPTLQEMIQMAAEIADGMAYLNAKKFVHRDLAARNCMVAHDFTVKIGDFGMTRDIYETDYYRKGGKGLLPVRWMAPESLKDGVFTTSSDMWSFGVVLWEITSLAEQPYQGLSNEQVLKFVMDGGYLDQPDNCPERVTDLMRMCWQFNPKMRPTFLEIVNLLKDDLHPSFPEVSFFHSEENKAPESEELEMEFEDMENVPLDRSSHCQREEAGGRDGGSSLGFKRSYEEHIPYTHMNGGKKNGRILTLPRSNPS

Insulin tolerance test = type: in vivo, mice; settings: intraperitoneal
Experimental: Insulin tolerance tests were performed as described previously with some modification. Briefly, 2-3 months old male mice were fasted for 2 hr. and their blood glucose levels (T=0) were measured with tail bleeding using a glucometer (AlphaTRAK). After then, mice were injected intraperitoneally with Humulin (6 nmol/kg body weight), S597 (9 nmol/kg), S597-S20D (9 nmol/kg), S597-W6A (9 nmol/kg), S597-F27A (9 nmol/kg), or S597-N20 (27 nmol/kg), and their blood glucose levels were measured at the indicated time points after injection.

IR R14W = target: T2, IR R14W (Homo sapiens, UniProt P06213, R41W); assay: IR activation assay in 293 FT cells, IR R14W mutant; type: cell-based; settings: 10 min
T2 construct: expressed in transfected cells; host or cells: 293 FT cells
T2 sequence (P06213 28-1370 isoform P06213-2 R41W limits assumed): as the sequence (P06213 28-1370 isoform P06213-2 D734A limits assumed) above, with R14W, A707D counted along it
T2 sequence (P06213 763-1382 partner limits assumed): as the sequence (P06213 763-1382 partner limits assumed) above

MCF7 = assay: IR signaling in cancer cells, MCF7; type: cell-based; settings: 10, 100 or 300 nM for 10 minutes
IR signaling = assay: Insulin signaling in vivo (liver, skeletal muscle, WAT lysates, western blot); design: species or system mice
Experimental: 2-3 months old male mice were fasted overnight. […] Livers were removed at 3 min after injection. White adipose tissue and skeletal muscles were removed at 5 min and 7 min after injection, respectively. Tissues were mixed with the lysis buffer B supplemented with complete Protease Inhibitor Cocktail (Roche), PhosSTOP (Sigma), and 25 U/ml turbo nuclease (Accelagen), homogenized with FisherbrandTM Bead Mill homogenizer, and then incubated on ice for 1 hr. After centrifuge at 20,817 g at 4° C. for 30 min, the concentrations of cell lysate were measured using Micro BCA Protein Assay Kit (Thermo Scientific). The lysates were then analyzed by quantitative western blotting.

IR E697A = target: T3, IR E697A (Homo sapiens, UniProt P06213, E724A); assay: IR activation assay in 293 FT cells, IR E697A mutant; type: cell-based; settings: 10 nM for 10 min
T3 construct: expressed in transfected cells; host or cells: 293 FT cells
T3 sequence (P06213 28-1370 isoform P06213-2 E724A limits assumed): as the sequence (P06213 28-1370 isoform P06213-2 D734A limits assumed) above, with E697A, A707D counted along it
T3 sequence (P06213 763-1382 partner limits assumed): as the sequence (P06213 763-1382 partner limits assumed) above

IR = IR (Homo sapiens, UniProt P06213); settings: cited from earlier work
Chain of IR (P06213 28-758 limits assumed): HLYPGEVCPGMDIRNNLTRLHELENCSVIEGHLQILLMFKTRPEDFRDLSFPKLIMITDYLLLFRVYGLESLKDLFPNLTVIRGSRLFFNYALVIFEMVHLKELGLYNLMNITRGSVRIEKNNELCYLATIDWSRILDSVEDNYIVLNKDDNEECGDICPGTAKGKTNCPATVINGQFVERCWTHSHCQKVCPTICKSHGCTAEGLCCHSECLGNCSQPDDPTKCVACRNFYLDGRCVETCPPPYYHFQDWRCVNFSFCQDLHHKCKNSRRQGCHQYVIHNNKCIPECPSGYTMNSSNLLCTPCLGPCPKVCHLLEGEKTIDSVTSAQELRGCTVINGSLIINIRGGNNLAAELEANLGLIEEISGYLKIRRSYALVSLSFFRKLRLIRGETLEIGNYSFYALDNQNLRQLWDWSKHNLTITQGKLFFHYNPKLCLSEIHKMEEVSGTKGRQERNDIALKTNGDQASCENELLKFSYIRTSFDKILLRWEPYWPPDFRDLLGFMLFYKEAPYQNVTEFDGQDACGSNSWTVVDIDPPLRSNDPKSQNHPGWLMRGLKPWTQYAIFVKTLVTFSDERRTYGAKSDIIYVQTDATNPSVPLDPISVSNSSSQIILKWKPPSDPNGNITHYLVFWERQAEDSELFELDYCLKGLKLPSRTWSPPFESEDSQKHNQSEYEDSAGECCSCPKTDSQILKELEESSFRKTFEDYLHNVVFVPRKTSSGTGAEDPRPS
Chain of IR (P06213 763-1382 partner limits assumed): as the sequence (P06213 763-1382 partner limits assumed) above

[2] = test system: upstream MAPK pathway proteins (e.g., SOS1, SHP2); assay: Quantitative phosphoproteomics of skeletal muscle; type: in vivo, mice; settings: compared to insulin
Experimental: FIG. 6A illustrates sequences of S597 and analogs. […] Liver (3 min) and skeletal muscle (5 min) were collected after injection. Quantification of data shown in Mean±SD. […] Two-tailed student t-test; *p<0.05; **p<0.01; ***p<0.001; ****p<0.0001 (PBS set as the control); ††p<0.01 and ††††p<0.0001. […] Compared to insulin-treated samples, blue and red sites indicate downregulation and upregulation of phosphorylation by S597, respectively.

IR D707A [3] = target: T1, IR D707A; assay: IR signaling in IR-D707A MEFs (tamoxifen-inducible IR knockout); type: cell-based, mouse; design: expressed in transfected cells; host or cells: mouse embryonic fibroblasts from IR F/F; CRE-ERT mice, retroviral pBabe-puro, tamoxifen-treated; settings: wide range of concentrations
Experimental: Fresh 0.25% trypsin-EDTA was added. […] The medium was changed the next day to remove debris and floating cells.

[4] = WAT, compared to vehicle treated conditions
[5] = liver, injection via inferior vena cava
[6] = skeletal muscle, injection via inferior vena cava

CC[C@H](C)[C@H](NC(=O)[C@H](CCC(N)=O)NC(=O)[C@H](C)NC(=O)[C@H](Cc1c[nH]c2ccccc12)NC(=O)[C@H](CCC(=O)O)NC(=O)[C@H](CCC(=O)O)NC(=O)[C@H](CCC(=O)O)NC(=O)[C@H](CC(C)C)NC(=O)[C@H](CO)NC(C)=O)C(=O)N[C@@H](CCC(=O)O)C(=O)N[C@H]1CSSC[C@@H](C(=O)N2CCC[C@H]2C(=O)N[C@@H](CO)C(=O)N[C@@H](CCC(=O)O)C(=O)N[C@@H](CO)C(=O)N[C@@H](Cc2ccccc2)C(=O)N[C@@H](Cc2ccc(O)cc2)C(=O)N[C@@H](CC(=O)O)C(=O)N[C@@H](Cc2c[nH]c3ccccc23)C(=O)N[C@@H](Cc2ccccc2)C(=O)N[C@@H](CCC(=O)O)C(=O)N[C@@H](CCCNC(=N)N)C(=O)N[C@@H](CCC(N)=O)C(=O)N[C@@H](CC(C)C)C(N)=O)NC(=O)CNC(=O)[C@H](CCCNC(=N)N)NC(=O)CNC(=O)[C@H](Cc2ccc(O)cc2)NC(=O)[C@H](C(C)C)NC(=O)[C@H](CCC(=O)O)NC1=O [S597] (Ac-SLEEEWAQIECEVYGRGCPSESFYDWFERQL-NH2; disulfide 11-18)
cell viability and growth (C2C12 cells): does not promote cell proliferation as efficiently as insulin
cell proliferation (CAL33): did not promote
IR activation (pY IR) (IR D707A [1]): fully activated
blood glucose levels in ITT (Insulin tolerance test; FIGS. 10A, 8F, 8G): lowered
blood glucose in insulin tolerance assays (Insulin tolerance test; FIGS. 12B, 12C): lowered blood glucose in mice as effectively as insulin
IR activation (pY IR) (IR R14W): fully activated
IR signaling (MCF7): failed to activate
pAKT level (IR signaling; [4]): significantly increased
pERK level (IR signaling; [4]): neither insulin nor S597 had a statistically significant effect
pY IR level (IR signaling; WAT, injection via inferior vena cava): robust auto-phosphorylation of the IR, albeit with lower potency than insulin
pERK level (IR signaling; [5]): increased
pY IR level (IR signaling; [5]): robust auto-phosphorylation of the IR, albeit with lower potency than insulin
pAKT level (IR signaling; [6]): significantly increased
pERK level (IR signaling; [6]): less potent; also recorded: not in the skeletal muscle
pY IR level (IR signaling; [6]): significantly increased
IR activation (pY IR) (IR E697A): fully activated
affinity for the IR (IR): sub-micromolar
phosphorylation levels of upstream MAPK pathway proteins (e.g., SOS1, SHP2) [2]: significantly reduced
phosphorylation of AKT (pAKT) (IR D707A [3]): significantly increased
phosphorylation of ERK (pERK) (IR D707A [3]): significantly increased
phosphorylation of IR (pY IR) (IR D707A [3]): significantly increased
